Activity calls are given as the source filed them. No cut-off for these calls is given here.

We go through 9 molecules from ChEMBL document CHEMBL1772970, “Potent bivalent Smac mimetics: effect of the linker on binding to inhibitor of apoptosis proteins (IAPs) and anticancer activity” (J Med Chem, 2011).

Data set [1] relates to MDA-MB-231. As to the kind of experiment: Induction of apoptosis in human MDA-MB-231 cells assessed as cIAP2 degradation at 1 nM after 24 hrs by Western blotting. Format: functional, cell-based.
The subject of data set [2] is MDA-MB-231. The data set can be described thus: Induction of apoptosis in human MDA-MB-231 cells assessed as PARP cleavage at 3 nM after 24 hrs by Western blotting. In kind it is functional, cell-based.
Data set [3] deals with MDA-MB-231. As to the kind of experiment: Induction of apoptosis in human MDA-MB-231 cells assessed as caspase-3 processing at 3 nM after 24 hrs by Western blotting. In kind it is functional, cell-based.
Data set [4] has as its system MDA-MB-231. As to the kind of experiment: Induction of apoptosis in human MDA-MB-231 cells assessed as cIAP1 degradation at 1 nM after 24 hrs by Western blotting. Format: functional, cell-based.
In data set [5] the test system is Mus musculus. As to the kind of experiment: Toxicity in SCID mouse xenografted with human MDA-MB-231 cells assessed as weight loss at […], iv administered on day 2 and 9. Format: organism-based. Details: dose 7.5 mg/kg, route intravenous. The note with it: in vivo.
Data set [6] relates to MDA-MB-231. The data set can be described thus: Antitumor activity against human MDA-MB-231 cells xenografted in SCID mouse assessed as inhibition tumor growth intravenously administered on day 1 to 5 and 8 to 12 post tumor implantation. In kind it is functional, cell-based.
Data set [7] relates to MDA-MB-231. The data set can be described thus: Antitumor activity against human MDA-MB-231 cells xenografted in SCID mouse assessed as tumor size at 5 mg/kg, iv administered on day 1 to 5 and 8 to 12 post tumor implantation measured on day 50 (reference value: 1136 mm'3). In kind it is functional.
Data set [8] has as its system MDA-MB-231. The note with it: Homo sapiens, 5 mg/kg.
Data set [9] concerns Mus musculus. As to the kind of experiment: Toxicity in SCID mouse xenografted with human MDA-MB-231 cells assessed as weight loss at 5 mg/kg, iv administered on day 1 to 5 and 8 to 12 post tumor implantation. Format: organism-based. Details: dose 5 mg/kg, route intravenous. Conditions: in vivo.
The test system of data set [10] is MDA-MB-231. The data set can be described thus: Induction of apoptosis in human MDA-MB-231 cells assessed as cIAP2 degradation at 10 nM after 24 hrs by Western blotting. In kind it is functional, cell-based.
The subject of data set [11] is MDA-MB-231. The data set can be described thus: Induction of apoptosis in human MDA-MB-231 cells assessed as cIAP1 degradation at 10 nM after 24 hrs by Western blotting. Format: functional, cell-based.
For data set [12], the system named is MDA-MB-231. As to the kind of experiment: Induction of apoptosis in human MDA-MB-231 cells assessed as caspase-3 processing at 10 nM after 24 hrs by Western blotting. Format: functional, cell-based.
Data set [13] has as its system MDA-MB-231. The data set can be described thus: Induction of apoptosis in human MDA-MB-231 cells assessed as PARP cleavage at 30 nM after 24 hrs by Western blotting. Format: functional, cell-based.
The test system of data set [14] is MDA-MB-231. As to the kind of experiment: Induction of apoptosis in human MDA-MB-231 cells assessed as caspase-3 processing at 30 nM after 24 hrs by Western blotting. In kind it is functional, cell-based.
For data set [15], the system named is MDA-MB-231. The data set can be described thus: Induction of apoptosis in human MDA-MB-231 cells assessed as cIAP2 degradation at 30 nM after 24 hrs by Western blotting. Format: functional, cell-based.
Data set [16] has as its system MDA-MB-231. As to the kind of experiment: Drug uptake in human MDA-MB-231 cells assessed as intracellular concentration at 300 nM after 3 hrs by LC-MS/MS. Conditions: mda-mb-231, 3 h, 0.3 µM. Format: ADME, cell-based.
Data set [17] relates to MDA-MB-231. As to the kind of experiment: Drug uptake in human MDA-MB-231 cells assessed as intracellular concentration at 300 nM after 1 min by LC-MS/MS. Format: ADME, cell-based. Conditions: mda-mb-231, 1 min, 0.3 µM.
Data set [18] deals with T1, Baculoviral IAP repeat-containing protein 2 (Homo sapiens, UniProt Q13490). The data set can be described thus: Binding affinity to human cIAP1 BIR2-BIR3 domain after 2 to 3 hrs by fluorescence polarization-based assay.
Data set [19] concerns the target T1, Baculoviral IAP repeat-containing protein 2. As to the kind of experiment: Binding affinity to human cIAP1 BIR3 domain after 2 to 3 hrs by fluorescence polarization-based assay.
In data set [20] the test system is MDA-MB-231. As to the kind of experiment: cells. The note with it: Homo sapiens.
Data set [21] addresses T1, Baculoviral IAP repeat-containing protein 2. As to the kind of experiment: Competitive inhibition of human cIAP1BIR2-BIR3 domain after 2 to 3 hrs by fluorescence polarization assay.
Data set [22] has the same target. The data set can be described thus: Competitive inhibition of human cIAP1 BIR3 domain after 2 to 3 hrs by fluorescence polarization assay.
Data set [23] addresses T2, E3 ubiquitin-protein ligase XIAP (Homo sapiens, UniProt P98170). As to the kind of experiment: Competitive inhibition of human XIAP linker BIR2-BIR3 domain expressed in Escherichia coli BL21(DE3) cells by fluorescence polarization-based assay.
The target of data set [24] is T2, E3 ubiquitin-protein ligase XIAP.
For data set [25] the target is unchanged. The data set can be described thus: Competitive inhibition of His-tagged human XIAP BIR3 domain expressed in Escherichia coli BL21(DE3) after 2 to 3 hrs by fluorescence polarization assay.
For data set [26] the target is unchanged. The data set can be described thus: biochemical.

In the case of `CN[C@@H](C)C(=O)N[C@H]1CCCC[C@H]2CC[C@@H](C(=O)N[C@@H](c3ccccc3)c3cn(CCCCCCc4ccc(CCCCCCn5cc([C@@H](NC(=O)[C@@H]6CC[C@@H]7CCCC[C@H](NC(=O)[C@H](C)NC)C(=O)N76)c6ccccc6)nn5)cc4)nn3)N2C1=O`, the result in the data set on MDA-MB-231 [1], in the data set on MDA-MB-231 [2], with MDA-MB-231 [3] and with MDA-MB-231 [4] was Active.

`CC(=O)O[C@@]12CO[C@@H]1C[C@H](O)[C@@]1(C)C(=O)[C@H](O)C3=C(C)[C@@H](OC(=O)[C@H](O)[C@@H](NC(=O)OC(C)(C)C)c4ccccc4)C[C@@](O)([C@@H](OC(=O)c4ccccc4)[C@H]21)C3(C)C.O.O.O` [DOCETAXEL]: the Activity entry with Mus musculus [5] was “Toxic”.

As for `CN[C@@H](C)C(=O)N[C@H]1CCCC[C@H]2CC[C@@H](C(=O)N[C@@H](c3ccccc3)c3cn(CCCCCOCCCCCn4cc([C@@H](NC(=O)[C@@H]5CC[C@@H]6CCCC[C@H](NC(=O)[C@H](C)NC)C(=O)N65)c5ccccc5)nn4)nn3)N2C1=O`, the Activity result was “Dose-dependent effect” in the data set with MDA-MB-231 [6], 269 mm3 with MDA-MB-231 [7] and “Toxic” in the data set on Mus musculus [9]. Also, in the data set with MDA-MB-231 [8], the inhibition entry is “Active”.

For the molecule `CN[C@@H](C)C(=O)N[C@H]1CCCC[C@H]2CC[C@@H](C(=O)N[C@@H](c3ccccc3)c3cn(CCCc4ccc(CCCn5cc([C@@H](NC(=O)[C@@H]6CC[C@@H]7CCCC[C@H](NC(=O)[C@H](C)NC)C(=O)N76)c6ccccc6)nn5)cc4)nn3)N2C1=O`, the outcome in the data set on MDA-MB-231 [2], with MDA-MB-231 [10], with MDA-MB-231 [11] and in the data set with MDA-MB-231 [12] was Active.

Consider `CN[C@@H](C)C(=O)N[C@H]1CCCC[C@H]2CC[C@@H](C(=O)N[C@@H](c3ccccc3)c3cn(CCc4ccc(CCn5cc([C@@H](NC(=O)[C@@H]6CC[C@@H]7CCCC[C@H](NC(=O)[C@H](C)NC)C(=O)N76)c6ccccc6)nn5)cc4)nn3)N2C1=O`, for which the outcome in the data set on MDA-MB-231 [13] and in the data set on MDA-MB-231 [14] was inactive. Besides, the outcome with MDA-MB-231 [15] was Active. The Drug uptake in the data set on MDA-MB-231 [16] is given as 67.7 nM.

Take `CN[C@@H](C)C(=O)N[C@H]1CCCC[C@H]2CC[C@@H](C(=O)N[C@@H](c3ccccc3)c3cn(Cc4ccc(Cn5cc([C@@H](NC(=O)[C@@H]6CC[C@@H]7CCCC[C@H](NC(=O)[C@H](C)NC)C(=O)N76)c6ccccc6)nn5)cc4)nn3)N2C1=O`: the outcome in the data set on MDA-MB-231 [13] and with MDA-MB-231 [14] was inactive. For the same molecule, the figures for the Drug uptake in the data set with MDA-MB-231 [16] and in the data set on MDA-MB-231 [17] were 75.2 nM and 21.2 nM, respectively.

With `CN[C@@H](C)C(=O)N[C@H]1CCCC[C@H]2CC[C@@H](C(=O)N[C@@H](c3ccccc3)c3cn(CCOCCOCCOCCn4cc([C@@H](NC(=O)[C@@H]5CC[C@@H]6CCCC[C@H](NC(=O)[C@H](C)NC)C(=O)N65)c5ccccc5)nn4)nn3)N2C1=O`, the Drug uptake is given as 7.3 nM in the data set on MDA-MB-231 [16] and 6.7 nM in the data set with MDA-MB-231 [17].

Take `CN[C@@H](C)C(=O)N[C@H]1CCCC[C@H]2CC[C@@H](C(=O)N[C@@H](c3ccccc3)c3cn(CCCCc4ccc(CCCCn5cc([C@@H](NC(=O)[C@@H]6CC[C@@H]7CCCC[C@H](NC(=O)[C@H](C)NC)C(=O)N76)c6ccccc6)nn5)cc4)nn3)N2C1=O`: the result in the data set with MDA-MB-231 [1], with MDA-MB-231 [2], in the data set on MDA-MB-231 [3] and with MDA-MB-231 [4] was Active. For the same molecule, the Ki in data set [18] is 1.5 nM; in data set [19], under 1 nM. In addition, the IC50 was found to be 3.3 nM with MDA-MB-231 [20], 5.7 nM in [21] and 4.6 nM in data set [22]. Besides, the values for the Drug uptake in the data set with MDA-MB-231 [16] and with MDA-MB-231 [17] were 541 nM and 106 nM, respectively.

As to `CC(=O)N[C@@H](Cc1c[nH]c2ccccc12)C(=O)N[C@H]1CCCC[C@H]2CC[C@@H](C(=O)N[C@@H](c3ccccc3)c3cn(CCCCc4ccc(CCCCn5cc([C@@H](NC(=O)[C@@H]6CC[C@@H]7CCCC[C@H](NC(=O)[C@H](Cc8c[nH]c9ccccc89)NC(C)=O)C(=O)N76)c6ccccc6)nn5)cc4)nn3)N2C1=O`, the figures for the IC50 (in data set [23]; in data set [25]; in the data set on MDA-MB-231 [20]) were over 50000 nM, over 50000 nM and over 100000 nM, respectively. The Ki in data set [24] and in data set [26] was over 10000 nM throughout.
